Measured values from patent publication US10071951B2, “Liquid cation exchanger” (Evonik Degussa GmbH, priority 2011, dated 2018).

What was measured:
E. coli BL21(DE3) = experiment: Toxicity of liquid cation exchangers, CFU determination (Example 2)
Excerpt: 50% DEHPA and lauric acid (15%), each dissolved in LSME and laden equimolar or 25 mol % with ALSME, were contacted as liquid cation exchanger with a E. coli BL21 (DE3) strain, and the influence of these two compounds on the ability of the strain to form colonies, expressed in CFUs, was investigated.

E. coli W3110 [1] = conditions: culture covered with identical volume of solvent, oleic acid volume adapted with LSME
Procedure: Firstly, a preculture comprising 20 ml LB medium was inoculated in a 100 ml baffled flask with a cryoculture of the corresponding strain. The culture was cultured overnight at 37° C. and with shaking at 200 rpm used on the next day in order to inoculate an identical main culture to an OD of 0.2. The main cultures (each 30 mL of LB medium) were then further incubated under identical conditions. At an OD of 0.4 to 0.5, the main culture was covered with in each case identical volumes (30 ml) of solvent and then further incubated.
To determine the number of CFU (colony-forming units) 0.1 ml samples were taken in the following experiments and diluted in sterile 0.9% NaCl solution. Suitable dilution stages were plated out on LB agar plates. After incubation at 34° C. overnight, the colonies formed were counted and the CFUs determined.
For this, two different concentrations of oleic acid were used and the volume was adapted by adding the corresponding amount of LSME (methyl laurate).
On account of the lower solubility of the unsaturated fatty acid lauric acid, this was used in a smaller amount. The volumes of the different cation exchangers were made the same with the LSME. The number of CFUs was determined at the start, after 4.5 h and after 24 h.

E. coli W3110 [2] = experiment: Reduction in the toxicity of ALSME by contacting with a liquid cation exchanger, CFU determination (Example 4); conditions: ALSME 0.2% (w/v) dissolved in aqueous systems, no organic phase
Procedure: Before the determination of the CFU was able to be carried out, a plate LB (10 g/L peptone from casein, 5 g/L yeast extract, 10 g/L NaCl) was streaked with E. coli BW3110 and incubated for 24 h. On the evening of the following day, a preculture was inoculated from this previously streaked plate. […] After the incubation of the main culture, the cells were harvested, centrifuged at 5258 g and 4° C. for 10 min and resuspended with an OD600 of 30 in 10 mL 50 mM Kp, buffer at pH 7.4 (or 25 mM HEPES buffer pH 7.4 if CFU determinations were carried out with ALSME). Both buffer solutions used contained 5% glucose (w/v). The bacteria suspension was then transferred to the shake flasks and treated with the respective substance solutions. After thorough mixing has taken place by swirling the flask, 100 μL of the suspension was pipetted out and placed into 900 μL, of previously charged sterile saline. This corresponded to sampling at time point t0. Then followed incubation of the preparations at 250 rpm and 30° C. The CFUs were determined over a period of 22 h. The samples were taken firstly at time points t0, t3, t6 and t22. For some preparations, a further sampling time point t15 was added and, in addition to this, a further additional dilution series was plated out in order to minimize deviations.
The bacteria were firstly resuspended in 5 mL (corresponds to half of the buffer volume). […]

[3] = Removal (reactive extraction) of DAI and DAS from an aqueous phase into a hydrophobic organic phase (Example 3); format: physicochemical
Excerpt: The organic solvents used here are kerosene (K), benzyl benzoate (B), methyl laurate (ML), cis-9-ocitadecen-1-ol (OD). As liquid cation exchangers, oleic acid and D2EHPA were compared in terms of their effect with the respective pure solvent.
The experimental procedure proceeded identically in all cases: the aqueous phase comprised 2% by weight of diamine and the organic phase consisted of the corresponding solvent and 20% by weight of the respective liquid cation exchanger. The volume ratio of the two phases was 1:1 (in each case 4.5 ml). At a constant temperature of T=30° C., the samples were shaken for 2 hours in a water bath. Then, after centrifugation and phase separation, the phases were analyzed. The pH was adjusted in all cases with aqueous ammonia or sulphuric acid.

[4] = system: E. coli strain BL21 (DE3) Tlr pBT10 pACYC:Duet[TAcv]; experiment: Toxicity of liquid cation exchangers in fermentation, oxygen transfer rate (OTR) (Example 5); format: cell-based; conditions: ion exchanger 10% w/w in methyl laurate; for toxic effect on cells judged from the OTR curve: 150 mL added to fermentation broth, 22 h
Procedure: The biotransformation of methyl laurate to methyl aminolaurate was tested in an 8-fold parallel fermentation system from DasGip with different ion exchangers.
1 L reactors were used for the fermentation. The pH probes were calibrated using a two-point calibration with measurement solutions of pH 4.0 and pH 7.0. The reactors were filled with 300 mL of water and autoclaved for 20 min at 121° C. in order to ensure sterility. The pO2 probes were then polarized overnight (at least 6 h). On the next morning, the water was removed under the clean bench and replaced by high cell density medium with 50 mg/L kanamycin and 34 mg/L chloramphenicol. Subsequently, the pO2 probes were calibrated with a one-point calibration (stirrer: 600 rpm/gassing: 10 sL/h air) and the feed, correctant and induction means stretches were cleaned by means of clean-in-place. For this, the tubes were flushed with 70% ethanol, then with 1 M NaOH, then with sterile demineralised water, and finally filled with the respective media.
The ALS and ALSME producing E. coli strain BL21 (DE3) Tlr pBT10 pACYC:Duet[TAcv] was firstly grown from cryoculture in LB medium (25 mL in a 100 mL baffled flask) with 50 mg/L kanamycin and 34 mg/L chloramphenicol overnight at 37° C. and 200 rpm for ca. 18 h.
The 3 cultures were combined in a shake flask and the optical density was determined at 7.2. In order to inoculate the reactors with an optical density of 0.1, in each case 4.2 mL were drawn up in a 5 mL syringe and the reactors were inoculated by means of canulae via a septum.
The experiment carried out can be divided into two phases, the cultivation during which the cells should reach a certain optical density, and the subsequent biotransformation during which the expression of the genes required for the biotechnological process for producing ALSME was induced. The pH values were regulated to pH 6.8 on the one hand with ammonia (12.5%). During cultivation and biotransformation, the dissolved oxygen (DO) in the culture was regulated at 30% via stirrer speed and gassing rate. The fermentation was carried out as a feed batch, where the feed start, 5 g/Lh glucose feed (500 g/L glucose with 1% MgSO4*7H2O and 2.2% NH4Cl), was triggered via a DO peak. […] The expression of the transaminase was induced 2 h after feed start via the automatic addition of IPTG (1 mM). The induction of the alk-genes was carried out by the manual addition of DCPK (0.025% v/v) 10 h after feed start. Before the start of the biotransformation, the optical density of the culture broths was determined.
The start of the biotransformation phase was carried out 14 h after feed start. For this, 150 mL of a mixture of methyl laurate and the respective ion exchanger (10% w/w) were added as a batch to the fermentation broth. The ion exchangers used were di(2-ethylhexyl)phosphoric acid (DEHPA), lauric acid, oleic acid, palmitic acid, palmitoleic acid, stearic acid and a mixture of free fatty acids from the saponification of globe thistle oil. In order to provide an amino group donor for the transaminase, at the same time as the addition of the organic phase, 10.7 mL of an alanine solution (125 g/L) were added to the fermentation broth. For the sampling, 2 mL of fermentation broth were removed from the reactor and part of it was diluted 1/20 in an acetone/HCl mixture (c(HCl)=0.1 mol/L) and extracted. Samples were taken from all 8 reactors at 1.25 h, 3 h, 5 h, 20 h, 22 h […] after the start of the biotransformation. The transfer rates for oxygen (OTR=oxygen transfer rate) and carbon (CTR=carbon transfer rate) were determined during the fermentation via offgas analysis on the DasGip systems. The fermentation was ended 22 h after the start of the biotransformation.

E. coli BW3110 = experiment: Toxicity of the solvent LSME, CFU determination (Example 1); format: cell-based; conditions: cells OD600 60 in 10 mL Kp buffer mixed with 5 mL LSME 98% (w/w), 30° C.
Procedure: The OD600 was 60. […] One dilution stage per preparation was plated out.

[5] = E. coli BL21(DE3), culture covered with identical volume of solvent, oleic acid volume adapted with LSME
[6] = oleic acid 20% by weight, solvent methyl laurate, pH lowered with sulphuric acid

Compound: CCCCC(CC)C(=O)O (centres unmarked) [2-Ethylhexanoic acid]
- Number of CFUs after 22 or 24 h relative to t = 0 h (E. coli BL21(DE3); [5]): 0%
- Number of CFUs after 22 or 24 h relative to t = 0 h (E. coli W3110 [1]): 0%

Compound: COC(=O)CCCCCCCCCCCN [ALSME, methyl 12-aminolaurate]
- effect on the bacteria (E. coli W3110 [2]): bactericidal effect

Compound: NC1COC2C(N)COC12 (centres unmarked) [DAI, diaminoisoiditol]
- degree of extraction ([3]; D2EHPA 20% by weight as liquid cation exchanger, without addition of acid or alkali, pH range 5.4 to 6.2, 30° C., 2 h, phases 1:1): ca. 100%
- maximum degree of extraction [3, 6]: 48%
- maximum degree of extraction ([3]; oleic acid, solvent benzyl benzoate, pH 1.1): 15.3
- maximum degree of extraction ([3]; oleic acid, solvent cis-9-octadecen-1-ol, pH 7.9, neither alkali nor acid added): 85%
- maximum degree of extraction ([3]; oleic acid, solvent kerosene, pH 8.4): 77.5%

Compound: NC1COC2C(N)COC12 (centres unmarked) [DAS, diaminoisosorbitol]
- maximum degree of extraction [3, 6]: 4%
- maximum degree of extraction ([3]; oleic acid, solvent benzyl benzoate, pH 7.3): 61.5%
- maximum degree of extraction ([3]; oleic acid, solvent cis-9-octadecen-1-ol, pH 6 (starting pH reduced with H2SO4)): 5.5%
- maximum degree of extraction ([3]; oleic acid, solvent kerosene, pH 8.5): 85%

Compound: CCCCC(CC)COP(=O)(O)OCC(CC)CCCC (centres unmarked) [DEHPA, di(2-ethylhexyl)phosphoric acid, reference compound]
- Number of CFUs after 22 or 24 h relative to t = 0 h (E. coli BL21(DE3); E. coli): 0%
- toxic effect on cells judged from the OTR curve [4]: high grade toxic effect
- OTR after adding the compound to the culture ([4]; 150 mL, within a short time): 0

Compound: CC(C)CCCCCC(=O)O [Isononanoic acid]
- Number of CFUs after 22 or 24 h relative to t = 0 h (E. coli BL21(DE3); [5]): 0%
- Number of CFUs after 22 or 24 h relative to t = 0 h (E. coli W3110 [1]): 0%

Compound: CCCCCCCCCCCC(=O)OC [LSME, methyl laurate]
- percentage decrease in living cell count (E. coli BW3110; after 22 h): 30.3%
- number of CFU/mL (E. coli BW3110; over a period of 6 h): remained constant
- tolerance by the strains used (E. coli BL21(DE3); preliminary experiments): well tolerated

Compound: CCCCCCCCCCCC(=O)O [Lauric acid]
- Number of CFUs after 22 or 24 h relative to t = 0 h (E. coli BL21(DE3); E. coli): 1.2%
- toxic effect on cells judged from the OTR curve [4]: notably less toxic than DEHPA

Compound: CCCCCCCC/C=C\CCCCCCCC(=O)O [oleic acid]
- toxic effect on cells judged from the OTR curve [4]: even lower toxicity than the saturated fatty acids

Compound: CCCCCCCCCCCCCCCC(=O)O [palmitic acid]
- toxic effect on cells judged from the OTR curve [4]: considerably lower toxic effect

Compound: CCCCCC/C=C\CCCCCCCC(=O)O [palmitoleic acid]
- toxic effect on cells judged from the OTR curve [4]: even lower toxicity than the saturated fatty acids

Compound: CCCCCCCCCCCCCCCCCC(=O)O [stearic acid]
- toxic effect on cells judged from the OTR curve [4]: considerably lower toxic effect
